# Biological target: ERK2 (Rattus norvegicus, UniProt P63086)
# Assay: competitive fluorescence anisotropy displacement of FITC-X-Lig-D
# Type: binding
# ERK2, sequence (P63086 2-358): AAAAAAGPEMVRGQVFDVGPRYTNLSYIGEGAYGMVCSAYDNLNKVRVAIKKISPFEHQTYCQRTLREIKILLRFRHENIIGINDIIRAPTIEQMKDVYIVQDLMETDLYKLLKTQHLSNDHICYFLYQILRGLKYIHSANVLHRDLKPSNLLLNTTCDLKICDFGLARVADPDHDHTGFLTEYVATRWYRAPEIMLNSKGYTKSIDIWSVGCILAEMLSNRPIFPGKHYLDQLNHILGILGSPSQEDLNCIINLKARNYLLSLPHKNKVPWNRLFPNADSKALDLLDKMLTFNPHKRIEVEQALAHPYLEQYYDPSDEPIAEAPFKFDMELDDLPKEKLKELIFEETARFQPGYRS
smiles,measurement,value
CC1(C)C2CCC(CN=C(N)CSS(=O)(=O)O)C1C2 (stereo not shown) [NSC 194308],Ki,0.73 ± 0.26 µM

# — publication PMC10950554 (Methods in enzymology, 2023)
